Values quoted from earlier work in patent publication US20170265459A1, “PROPAGULE COATINGS” (E I DU PONT DE NEMOURS AND COMPANY, priority 2014, published 2017).

## CNC(=O)c1cc(Cl)cc(C)c1NC(=O)c1cc(Br)nn1-c1ncccc1Cl [Chlorantraniliprole, chlorantraniliprole]
  water solubility at 20° C.: about 1 milligram per liter

## CNC(=O)c1cc(C#N)cc(C)c1NC(=O)c1cc(Br)nn1-c1ncccc1Cl [Cyantraniliprole, cyantraniliprole]
  water solubility at 20° C.: about 14.2 milligram per liter
